Our source for the IC50 and inhibition values is patent publication US20070197590A1, “SUBSTITUTED DIPIPERIDINE CCR2 ANTAGONISTS” (priority 2006, published 2007).

Each structure is given as a SMILES string. Like-named read-outs stand apart in the source and are kept apart here.

Experiment [1] addresses T1, CCR2 (Homo sapiens, UniProt P41597).
T1 construct: host or cells: THP-1 cells
T1 sequence (P41597 1-360 isoform P41597-2): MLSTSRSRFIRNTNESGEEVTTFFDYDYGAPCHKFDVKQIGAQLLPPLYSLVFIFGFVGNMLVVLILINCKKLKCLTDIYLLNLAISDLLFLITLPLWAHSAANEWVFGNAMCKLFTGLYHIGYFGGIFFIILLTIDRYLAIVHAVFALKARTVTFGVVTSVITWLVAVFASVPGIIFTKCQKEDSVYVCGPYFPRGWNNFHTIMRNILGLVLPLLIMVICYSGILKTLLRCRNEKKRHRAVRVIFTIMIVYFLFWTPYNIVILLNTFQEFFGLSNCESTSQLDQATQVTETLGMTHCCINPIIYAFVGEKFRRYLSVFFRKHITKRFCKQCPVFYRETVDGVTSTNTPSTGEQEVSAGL
Description: MCP-1 Receptor Binding Assay in THP-1 Cells. Conditions: THP-1 cells, 0.5 nM 125I labeled MCP-1, 2 hours at 30° C.; read-out: Inhibition of MCP-1 Binding IC50. Summed up: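 Whole THP-1 cells incubated 2 h at 30° C with 0.5 nM 125I-MCP-1 and varying compound concentrations; bound radioactivity harvested on filters and counted by scintillation. Nonspecific binding with 1 μM cold MCP-1; IC50 for inhibition of binding versus vehicle.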

Experiment [2] relates to MCP-1 induced calcium ion influx in THP-1 cells. The experiment can be described thus: MCP-1 Induced Calcium Mobilization in THP-1 Cells. The experiment is classed as cell-based. The conditions noted are these: for IC50: 0.2 μM MCP-1, FLIPR, read-out: Inhibition of MCP-1 Induced Calcium Ion Influx IC50. The method in brief:
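Fluo-3-loaded (5 μM, 45 min) THP-1 cells preincubated 15 min with compound. Calcium change after 0.2 μM MCP-1 addition read by FLIPR relative to vehicle; IC50 values derived.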
For orientation: Calcium flux is commonly read through the fluorescence of an indicator in the cells.

The test system of experiment [3] is MCP-1 induced chemotaxis of THP-1 cells. Description: MCP-1 Induced Chemotaxis in THP-1 Cells. The experiment is classed as cell-based. The conditions noted are these: Homo sapiens, MCP-1 0.01 μg/mL, 3 hours at 37° C., read-out: Inhibition of MCP-1 Induced Chemotaxis IC50.
The mark [4] stands for this setting: Homo sapiens, THP-1, THP-1 cells.

Usually IC50 stands for the point on the concentration scale where inhibition reaches its midpoint. Consider `O=C(/C=C/c1ccc(Cl)c(Cl)c1)N1CCC(C(O)CN2CCC(c3nc4ccccc4[nH]3)CC2)CC1` (stereo not drawn) [Compound 85], for which the IC50 in experiment [1] is 150 nM; in experiment [2] (setting [4]), 6 nM; in experiment [3], 40 nM.

As to `O=C(/C=C/c1cc(F)c(F)c(F)c1)N1CCC(C(O)CN2CCC(c3nc4ccccc4[nH]3)CC2)CC1` (stereo not drawn) [Compound 86], the IC50 in experiment [1] came out at 80 nM; in experiment [2] (setting [4]), 70 nM; in experiment [3] it was 50 nM.

As for `COc1ccc(C2CCN(CC(O)C3(O)CCN(C(=O)/C=C/c4cc(F)c(F)c(F)c4)CC3)CC2)cc1` (stereo not drawn) [Compound 88], the figures for the IC50 in experiment [1], in experiment [2] (setting [4]) and in experiment [3] were 170 nM, 980 nM and 30 nM, respectively.

`COc1ccc(C2CCN(CC(O)C3(O)CCN(C(=O)/C=C/c4ccc(F)c(F)c4)CC3)CC2)cc1` (stereo not drawn) [Compound 93]: the IC50 in experiment [1] is 310 nM; in experiment [2] (setting [4]), 9200 nM; in experiment [3], 120 nM.

With `COc1ccc(C2CCN(CC(O)C3(O)CCN(C(=O)/C=C/c4cc(F)cc(F)c4)CC3)CC2)cc1` (stereo not drawn) [Compound 94], the IC50 came out at 350 nM in experiment [1], 900 nM in experiment [2] (setting [4]) and 100 nM in experiment [3].

Regarding `COc1ccc(C2CCN(CC(O)C3CCN(C(=S)Nc4cc(F)cc(F)c4)CC3)CC2)cc1` (stereo not drawn) [Compound 107, 4-{1-hydroxy-2-[4-(4-methoxy-phenyl)-piperidin-1-yl]-ethyl}-piperidine-1-carbothioic acid (3,5-difluoro-phenyl)-amide], the results for the IC50 in experiment [1], in experiment [2] (setting [4]) and in experiment [3] were 290 nM, 4300 nM and 40 nM, respectively.

Regarding `COc1ccc(C2CCN(CC(O)C3CCN(C(=S)Nc4ccc(Br)c(F)c4)CC3)CC2)cc1` (stereo not drawn) [Compound 110, 4-{1-hydroxy-2-[4-(4-methoxy-phenyl)-piperidin-1-yl]-ethyl}-piperidine-1-carbothioic acid (4-bromo-3-fluoro-phenyl)-amide], the IC50 was found to be 90 nM in experiment [1], 4300 nM in experiment [2] (THP-1 cells) and 70 nM in experiment [3].

`O=C(/C=C/c1cc(F)c(F)c(F)c1)N1CCC(O)(C(O)CN2CCC(c3ccc(F)cc3)CC2)CC1` (stereo not drawn) [Compound 128]: the IC50 was 110 nM in experiment [1], 1900 nM in experiment [2] (setting [4]) and 300 nM in experiment [3].

Regarding `O=C(/C=C/c1cc(F)cc(F)c1)N1CCC(O)(C(O)CN2CCC(c3ccc(F)cc3)CC2)CC1` (stereo not drawn) [Compound 130], the concentration for half-maximal inhibition (IC50) was 100 nM in experiment [1], 2400 nM in experiment [2] (setting [4]) and 190 nM in experiment [3].

On to `O=C(/C=C/c1cc(F)c(F)c(F)c1)N1CCC(O)(C(O)CN2CCC(c3ccc(C(F)(F)F)cc3)CC2)CC1` (stereo not drawn) [Compound 136], for which the figures for the IC50 in experiment [1], in experiment [2] (setting [4]) and in experiment [3] were 140 nM, 210 nM and 150 nM, respectively.

`O=C(/C=C/c1ccc(F)c(F)c1)N1CCC(O)(C(O)CN2CCC(c3ccc(C(F)(F)F)cc3)CC2)CC1` (stereo not drawn) [Compound 137]: the figures for the IC50 in experiment [1], in experiment [2] (setting [4]) and in experiment [3] were 255 nM, 1300 nM and 170 nM, respectively.

Turning to `O=C(/C=C/c1cc(F)cc(F)c1)N1CCC(O)(C(O)CN2CCC(c3ccc(C(F)(F)F)cc3)CC2)CC1` (stereo not drawn) [Compound 138], the IC50 in experiment [1] came out at 210 nM; in experiment [2] (setting [4]) it was 810 nM; in experiment [3], 60 nM.

What is called inhibition is the change of the read-out against control, counted positive when it falls. As for `O=C(Nc1cc(F)cc(F)c1)N1CCC(O)(C(O)CN2CCC(c3ccc(C(F)(F)F)cc3)CC2)CC1` (stereo not drawn) [Compound 142, 4-hydroxy-4-{1-hydroxy-2-[4-(4-trifluoromethyl-phenyl)-piperidin-1 yl]-ethyl}-piperidine-1-carboxylic acid (3,5-difluoro-phenyl)-amide], the IC50 in experiment [1] and in experiment [3] was 260 nM throughout. Further, the inhibition at 25 µM in experiment [2] (Homo sapiens, THP-1, test concentration of 25 μM, given where an IC50 value was not obtained, read-out: Inhibition of MCP-1 Induced Calcium Ion Influx, percent inhibition) was determined as 68%.

As to `O=C(/C=C/c1cc(Cl)cc(Cl)c1)N1CCC(O)(C(O)CN2CCC(c3c[nH]c4ccc(N5CCOCC5)cc34)CC2)CC1` (stereo not drawn) [Compound 151], the figures for the IC50 in experiment [1], in experiment [2] (setting [4]) and in experiment [3] were 40 nM, 510 nM and 160 nM, respectively.

For the compound `O=C(/C=C/c1cc(F)c(F)c(F)c1)N1CCC(O)(C(O)CN2CCC(c3c[nH]c4ccc(F)cc34)CC2)CC1` (stereo not drawn) [Compound 155], the values for the IC50 in experiment [1], in experiment [2] (setting [4]) and in experiment [3] were 100 nM, 660 nM and 180 nM, respectively.

Turning to `O=C(/C=C/c1ccc(F)c(F)c1)N1CCC(O)(C(O)CN2CCC(c3c[nH]c4ccc(F)cc34)CC2)CC1` (stereo not drawn) [Compound 156], the IC50 in experiment [1] stood at 120 nM; in experiment [2] (setting [4]), 4000 nM; in experiment [3], 360 nM.

Regarding `O=C(/C=C/c1cc(F)cc(F)c1)N1CCC(O)(C(O)CN2CCC(c3c[nH]c4ccc(F)cc34)CC2)CC1` (stereo not drawn) [Compound 157], the IC50 in experiment [1] turned out to be 150 nM; in experiment [2] (setting [4]), 1900 nM; in experiment [3] it was 120 nM.

As for `O=C(/C=C/c1cc(F)c(F)c(F)c1)N1CCC(O)(C(O)CN2CCC(c3ccc(Cl)cc3)CC2)CC1` (stereo not drawn) [Compound 163], the IC50 in experiment [1] turned out to be 0.2 nM; in experiment [2] (setting [4]), 120 nM; in experiment [3], 5 nM.

For the compound `O=C(/C=C/c1cc(F)cc(F)c1)N1CCC(O)(C(O)CN2CCC(c3ccc(Cl)cc3)CC2)CC1` (stereo not drawn) [Compound 164], the IC50 in experiment [1] was 50 nM; in experiment [2] (setting [4]), 60 nM; in experiment [3], 2 nM.

Take `O=C(Nc1ccc(Cl)c(Cl)c1)N1CCC(O)(C(O)CN2CCC(c3ccc(Cl)cc3)CC2)CC1` (stereo not drawn) [Compound 165, 4-{2-[4-(4-chloro-phenyl)-piperidin-1-yl]-1-hydroxy-ethyl}-4-hydroxy-piperidine-1-carboxylic acid (3,4-dichloro-phenyl)-amide]: the values for the IC50 in experiment [1], in experiment [2] (setting [4]) and in experiment [3] were 50 nM, 900 nM and 120 nM, respectively.

Take `O=C(Nc1ccc(Cl)c(Cl)c1)N1CCC(O)(C(O)CN2CCC(c3c[nH]c4ccc(F)cc34)CC2)CC1` (stereo not drawn) [Compound 167, 4-{2-[4-(5-fluoro-1H-indol-3-yl)-piperidin-1-yl]-1-hydroxy-ethyl}-4-hydroxy-piperidine-1-carboxylic acid (3,4-dichloro-phenyl)-amide]: the results for the IC50 in experiment [1], in experiment [2] (setting [4]) and in experiment [3] were 460 nM, 940 nM and 4 nM, respectively.

For the compound `O=C(Nc1ccc(Cl)c(Cl)c1)N1CCC(O)(C(O)CN2CCC(c3c[nH]c4ccc(N5CCOCC5)cc34)CC2)CC1` (stereo not drawn) [Compound 181, 4-hydroxy-4-{1-hydroxy-2-[4-(5-morpholin-4-yl-1H-indol-3-yl)-piperidin-1-yl]-ethyl}-piperidine-1-carboxylic acid (3,4-dichloro-phenyl)-amide], the IC50 in experiment [1] is 270 nM; in experiment [2] (setting [4]), 2100 nM; in experiment [3] it was 180 nM.
